Measured values: patent US20040157772A1, “Use of a gatran for the manufacture of a medicament of the treatment of pulmonary fibrosis” (priority 2001, published 2004)

How the values were obtained:
[1] = test system: bleomycin-induced lung fibrosis; assay: Bleomycin-induced lung fibrosis model in rats, inogatran by constant i.v. infusion; format: in vivo, Sprague Dawley rats
Method: Forty male Sprague Dawley rats weighing 200 g were kept in cages (2 rats/cage) covered with filter tops to prevent spreading of carcinogenic metabolites of bleomycin. The rats had free access to food and water.
The rats were split into four groups:
Group 1—8 rats—received 0.9% NaCl (1 mL/kg) as a control (only 6 animals were ultimately used, the other 2 were used for different purposes).
Group 2—8 rats—received induction by way of an i.t. 2.5 mg/kg (1 mL/kg) bleomycin instillation (a 15 IE injection solution (Lundbeck)).
Group 3—12 rats—received bleomycin induction as above, plus a constant i.v. infusion of 0.9% NaCl solution (5.0 μL/h) (only 8 animals were ultimately used, the other 4 were used for different purposes).
(§1) Group 4—12 rats—received bleomycin induction as above, plus a constant i.v. infusion of inogatran (5 μmol/kg/h) loaded in Alzet® 2ML2 pumps at a concentration of 200 μmol/mL (88 mg/mL) in 0.9% NaCl (only 8 animals were ultimately used, the other 4 were used for different purposes).
The rats were anaesthetised by way of an i.p. injection (2 mL/kg) of Ketalar™ (50 mg/mL ketamin; Parke-Davis)/Rompun.vet™ (20 mg/mL xylazin; Bayer) (1.75 mL/0.35 mL). A pre-filled minipump connected to a PE60 catheter was inserted into the jugularis vein. A s.c. pocket was created on the back of the animal. The pump was led into this pocket. The incision on the neck was closed with wound clips.
The pre-filled pump with catheter was incubated in 37° C. 0.9% NaCl overnight before implantation to enable immediate pumping after surgery. This was to avoid clotting in the catheter.
After 14 days, all rats received an overdose of pentobarbital (i.p.). The rats were weighed and the lung was dissected and weighed. One lobe was placed in Histofix™ (buffered 5% formaldehyde solution) for histological examination. […]
The following parameters were measured: […]
Total collagen (quantification of hydroxyproline according to the procedure described in Stegemann-Stadler et al, Determinations of Hydroxyproline, Clin. Chim. Acta (1967) 18, 267-273).

[2] = Concentration of inogatran in plasma on day 6; format: in vivo; conditions: Sprague-Dawley, rat, iv, rats, constant i.v. infusion 5 μmol/kg/h from Alzet pumps, day 6 after implantation, approximately
Method: as §1
Plasma and bronchiolar lavage fluid (BAL) were collected from four rats in groups 3 and 4, and from two rats in group 1, six days after induction, for quantification of plasma concentration of compound and thrombin activity in BAL.
Concentration of inogatran in plasma on day 6.

N=C(N)NCCCNC(=O)[C@@H]1CCCCN1C(=O)[C@@H](CC1CCCCC1)NCC(=O)O [inogatran, HOOC—CH2-(R)Cha-Pic-Nag-H]
hydroxyproline content in the lungs (total collagen) ([1]; bleomycin i.t. 2.5 mg/kg, constant i.v. infusion 5 μmol/kg/h, day 14, vehicle control 2.34±0.14, P=0.0008): 1.37±0.10 μg/mg tissue | inhibition of collagen deposition ([1]; bleomycin-induced rats, constant i.v. infusion, day 14): almost complete inhibition | effect on total lung weight (wet-weight) ([1]; bleomycin-induced rats, inogatran 4-5 μmol/kg/hr): no effect | concentration at 6 day [2]: 2 to 7 µM
